Experimental data: patent US10124004B2, “Pyrido[3,4-d]pyrimidine derivative and pharmaceutically acceptable salt thereof” (Teijin Pharma Limited, priority 2015, dated 2018)
pIC50: −log10 of the molar value. Where two headings read alike, the source gives them in different places.

How the values were obtained:
Format in all cases: biochemical
CDK4/cyclin D3 = target: T1, CDK4/cyclin D3 (Homo sapiens, UniProt P11802); assay: Human CDK4/cyclin D3 inhibitory activity (QS S Assist CDK4/Cyclin D3_FP Kit, IMAP fluorescence polarization)
T1 construct: purchased Carna Biosciences, Inc. QS S Assist CDK4/Cyclin D3_FP Kit
T1 sequence (P11802 whole entry): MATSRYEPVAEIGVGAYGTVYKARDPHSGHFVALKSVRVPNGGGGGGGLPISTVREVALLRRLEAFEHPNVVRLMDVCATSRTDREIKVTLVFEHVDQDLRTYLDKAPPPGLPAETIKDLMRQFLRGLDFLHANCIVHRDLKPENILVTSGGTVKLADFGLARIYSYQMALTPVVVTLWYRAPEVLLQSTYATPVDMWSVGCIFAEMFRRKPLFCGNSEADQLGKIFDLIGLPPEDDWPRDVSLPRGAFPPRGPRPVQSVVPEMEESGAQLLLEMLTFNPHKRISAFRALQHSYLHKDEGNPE
T1 sequence (P30281 whole entry partner): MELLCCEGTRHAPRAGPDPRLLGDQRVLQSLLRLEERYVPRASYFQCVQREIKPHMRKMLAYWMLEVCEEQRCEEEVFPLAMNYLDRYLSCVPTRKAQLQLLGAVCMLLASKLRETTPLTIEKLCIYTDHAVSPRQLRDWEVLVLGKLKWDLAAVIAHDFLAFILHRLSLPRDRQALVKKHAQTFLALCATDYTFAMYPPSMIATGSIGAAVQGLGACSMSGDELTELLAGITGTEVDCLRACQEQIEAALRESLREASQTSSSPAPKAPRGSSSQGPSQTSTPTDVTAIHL
Method in brief: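 IMAP fluorescence-polarization kinase assay with kit ATP/substrate/metal mix and 12.5 to 25 ng/well enzyme in 20 mM HEPES pH 7.4, 0.01% Tween20, 2 mM DTT. Reaction ran 45 min at room temperature, then binding reagent was added for 30 min in the dark. IC50 was taken from dose-response fits of percent inhibition.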

CDK2/cyclin A2 = target: T2, CDK2/cyclin A2 (Homo sapiens, UniProt P24941); assay: Human CDK2/cyclin A2 inhibitory activity (QS S Assist CDK2/Cyclin A2_FP Kit, IMAP fluorescence polarization)
T2 construct: purchased Carna Biosciences, Inc. QS S Assist CDK2/Cyclin A2_FP Kit
Method in brief: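 Kinase activity read as fluorescence polarization (485/535 nm) after phosphorylated fluorescent substrate binds IMAP reagent (30 min, RT, dark). Enzyme (2.5 ng/well) reacted 60 min at RT with ATP/substrate/metal in HEPES pH 7.4 buffer with Tween 20 and DTT; no-enzyme wells define 0% activity; IC50 by curve fit.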

CDK6/cyclin D3 = CDK6/cyclin D3 (Homo sapiens, UniProt Q00534); assay: Human CDK6/cyclin D3 inhibitory activity (off-chip mobility shift assay); conditions: 50% inhibitory concentration against CDK6/cyclin D3; 300 μM ATP, room temperature, five hours; read-out: CDK6 Activity Symbol
Sequence of CDK6/cyclin D3 (Q00534 whole entry): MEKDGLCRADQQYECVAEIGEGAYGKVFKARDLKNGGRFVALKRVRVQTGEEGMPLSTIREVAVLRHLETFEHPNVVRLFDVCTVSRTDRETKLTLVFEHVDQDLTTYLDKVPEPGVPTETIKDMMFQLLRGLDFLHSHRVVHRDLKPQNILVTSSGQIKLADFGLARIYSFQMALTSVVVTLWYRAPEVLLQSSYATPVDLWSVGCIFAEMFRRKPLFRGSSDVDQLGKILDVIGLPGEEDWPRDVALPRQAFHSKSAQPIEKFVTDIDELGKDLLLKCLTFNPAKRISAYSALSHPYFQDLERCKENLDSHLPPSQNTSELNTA
Sequence of CDK6/cyclin D3 (P30281 whole entry partner): as the sequence (P30281 whole entry partner) above
Protocol: Human CDK6/Cyclin D3 Inhibitory Activity
CDK6/cyclin D3 inhibitory activity was determined by the off-chip mobility shift assay (MSA). The MSA separates proteins from one another on the basis of a difference in electrophoretic mobility depending on the molecular weight or electric charge of the proteins. The kinase activity is determined by quantifying the degree of phosphorylation through electrophoretic analysis of a positive to negative change in electric charge of the substrate phosphorylated by the kinase.
Each solution was prepared with an assay buffer containing 20 mM HEPES (pH 7.5), 0.01% Triton X-100, and 2 mM dithiothreitol. A test compound solution was prepared by dilution of the test compound with dimethyl sulfoxide (DMSO) to a concentration 100 times higher than the final concentration and then 25-fold dilution with the assay buffer to a concentration four times higher than the final concentration. An ATP/substrate/metal solution was prepared to have a concentration four times higher than the final concentration. An enzyme solution was prepared to have a concentration twice higher than the final concentration. The final enzyme concentration was adjusted to an appropriate level on the basis of the enzyme activity signal and the inhibitory activity of a positive control compound.
The test compound solution (5 μL/well) and the ATP/substrate/metal solution (5 μL/well) were added to a 384-well plate, and the enzyme solution or the assay buffer (10 μL/well) was added to the plate (total amount of the reaction mixture: 20 μL/well) for initiation of enzymatic reaction. […] The reaction was performed at room temperature for five hours, and a termination buffer (QuickScout Screening Assist MSA, manufactured by Carna Biosciences, Inc.) (60 μL/well) was then added to the plate for termination of the reaction. Subsequently, the substrate peptide and the phosphorylated peptide in the reaction mixture were separated from each other and quantified with LabChip 3000 (manufactured by Caliper Lifesciences). The kinase reaction was evaluated by the product ratio (P/(P+S)) calculated from the peak height (S) of the substrate peptide and the peak height (P) of the phosphorylated peptide.
The percent inhibition of enzyme activity was calculated for each test compound (note: enzyme activity=100% in the case of addition of the enzyme solution and addition of DMSO instead of the test compound solution, whereas enzyme activity=0% in the case of addition of the assay buffer instead of the enzyme solution and addition of DMSO instead of the test compound solution). The percent inhibition of enzyme activity was fitted to a dose-response curve, to determine a 50% inhibitory concentration against CDK6/cyclin D3.
In each table, “+++” corresponds to IC50<10 nM, “++” 10 nM≤IC50<100 nM, and “+” 100 nM≤IC50.

[1] = 50% inhibitory concentration against CDK4/cyclin D3, given as class symbol
[2] = 50% inhibitory concentration against CDK2/cyclin A2, given as class symbol
[3] = Human CDK4/cyclin D3 inhibitory activity, read-out: CDK4 Activity symbol
[4] = Human CDK2/cyclin A2 inhibitory activity, read-out: CDK2 Activity symbol

Row | Compound | pIC50 (CDK4/cyclin D3; [1]) | pIC50 (CDK2/cyclin A2; [2]) | pIC50 (CDK6/cyclin D3) | pIC50 (CDK4/cyclin D3; [3]) | pIC50 (CDK2/cyclin A2; [4])
1 | c1cc(N2CCNCC2)nnc1Nc1ncc2cc(C3CCOC3)nc(N[C@H]3CCCOC3)c2n1 (single isomer, unassigned) [Compound 938] | > 8.00 | ≤ 7.00 | 7.00 to 8.00 | – | –
2 | c1cc(Nc2ncc3cc(C4CCOC4)nc(N[C@H]4CCCOC4)c3n2)ncc1CN1CCNCC1 (single isomer, unassigned) [Compound 941] | > 8.00 | ≤ 7.00 | > 8.00 | – | –
3 | COCC(C)(C)Nc1nc([C@@H](C)O)cc2cnc(Nc3ccc(CN4CCNCC4)cn3)nc12 [Compound 221] | – | – | 7.00 to 8.00 | > 8.00 | ≤ 7.00
4 | CO[C@H](C)c1cc2cnc(Nc3ccc(CN4CCNCC4)cn3)nc2c(N[C@H]2CCCOC2)n1 [Compound 300] | – | – | 7.00 to 8.00 | > 8.00 | ≤ 7.00
5 | CO[C@H](C)c1cc2cnc(Nc3ccc(N4CCNCC4)nn3)nc2c(N[C@H]2CCCOC2)n1 [Compound 304] | – | – | 7.00 to 8.00 | > 8.00 | ≤ 7.00
6 | C[C@@H](O)c1cc2cnc(Nc3ccc4c(n3)CCNC4)nc2c(N[C@H]2CCCOC2)n1 [Compound 778] | > 8.00 | ≤ 7.00 | 7.00 to 8.00 | – | –
7 | CCCNc1nc([C@@H](C)OC)cc2cnc(Nc3ccc(CN4CCNCC4)cn3)nc12 [Compound 818] | > 8.00 | ≤ 7.00 | 7.00 to 8.00 | – | –
8 | CCCNc1nc([C@@H](C)OC)cc2cnc(Nc3ccc(N4CCNCC4)nn3)nc12 [Compound 819] | > 8.00 | ≤ 7.00 | 7.00 to 8.00 | – | –
9 | CCNc1nc([C@@H](C)O)cc2cnc(Nc3ccc(CN4CCN(CCO)CC4)cn3)nc12 [Compound 843] | > 8.00 | ≤ 7.00 | 7.00 to 8.00 | – | –
10 | CCCNc1nc([C@@H](C)O)cc2cnc(Nc3ccc(CN4CCN(CCO)CC4)cn3)nc12 [Compound 844] | > 8.00 | ≤ 7.00 | > 8.00 | – | –
11 | CC(C)Nc1nc([C@@H](C)O)cc2cnc(Nc3ccc4c(n3)CCN(CCO)C4)nc12 [Compound 929] | > 8.00 | ≤ 7.00 | > 8.00 | – | –
12 | CC(C)Nc1nc([C@@H](C)O)cc2cnc(Nc3ccc4c(n3)CCN(CCN(C)C)C4)nc12 [Compound 954] | > 8.00 | ≤ 7.00 | > 8.00 | – | –

Next, values leading:

Row | pIC50 (CDK4/cyclin D3; [1]) | pIC50 (CDK2/cyclin A2; [2]) | pIC50 (CDK6/cyclin D3) | pIC50 (CDK4/cyclin D3; [3]) | pIC50 (CDK2/cyclin A2; [4]) | Compound
13 | > 8.00 | ≤ 7.00 | 7.00 to 8.00 | – | – | CC(C)Nc1nc(C2CCCO2)cc2cnc(Nc3ccc(N4CCNCC4=O)cn3)nc12 (single isomer, unassigned) [Compound 672]
14 | – | – | > 8.00 | – | – | CC(C)Nc1nc(C(F)F)cc2cnc(Nc3ccc(N4CCNCC4)cn3)nc12 [Compound 3, 6-difluoromethyl-8-isopropyl-2-(5-piperazin-1-ylpyridin-2-yl)pyrido[3,4-d]pyrimidine-2,8-diamine]
15 | – | – | > 8.00 | > 8.00 | ≤ 7.00 | CC(C)Nc1nc([C@@H](C)O)cc2cnc(Nc3ccc(N4CCNCC4)cn3)nc12 [Compound 16]
16 | – | – | 7.00 to 8.00 | > 8.00 | ≤ 7.00 | CO[C@H](C)c1cc2cnc(Nc3ccc(N4CCNCC4)nn3)nc2c(NC(C)C)n1 [Compound 217, (R)—N8-isopropyl-6-(1-methoxyethyl)-N2-(6-(piperazin-1-yl)pyridazin-3-yl)pyrido[3,4-d]pyrimidine-2,8-diamine]
17 | – | – | 7.00 to 8.00 | > 8.00 | ≤ 7.00 | CO[C@H](C)c1cc2cnc(Nc3ccc(CN4CCNCC4)cn3)nc2c(NC(C)C)n1 [Compound 220]
18 | – | – | > 8.00 | > 8.00 | ≤ 7.00 | CC(C)Nc1nc([C@@H](C)O)cc2cnc(Nc3ccc(N4CCNCC4=O)cn3)nc12 [Compound 230]
19 | – | – | 7.00 to 8.00 | > 8.00 | ≤ 7.00 | CO[C@H](C)c1cc2cnc(Nc3cnc(N4CCNCC4)cn3)nc2c(NC(C)C)n1 [Compound 363]
20 | > 8.00 | ≤ 7.00 | 7.00 to 8.00 | – | – | Cc1nc(Nc2ncc3cc([C@@H](C)O)nc(NC(C)C)c3n2)ccc1N1CCNCC1=O [Compound 749]
21 | > 8.00 | ≤ 7.00 | > 8.00 | – | – | CC(C)Nc1nc(C2(C)COC2)cc2cnc(Nc3ccc(N4CCNCC4=O)cn3)nc12 [Compound 779]
22 | > 8.00 | ≤ 7.00 | > 8.00 | – | – | CC(C)Nc1nc(C2(C)COC2)cc2cnc(Nc3ccc(N4CCNCC4)nn3)nc12 [Compound 879]
23 | > 8.00 | ≤ 7.00 | > 8.00 | – | – | CC(C)Nc1nc(C2(C)COC2)cc2cnc(Nc3ccc(CN4CCNCC4)cn3)nc12 [Compound 883]
24 | > 8.00 | ≤ 7.00 | > 8.00 | – | – | CC(C)N(C)c1nc([C@@H](C)O)cc2cnc(Nc3ccc(N4CCNCCC4=O)cn3)nc12 [Compound 904]
25 | > 8.00 | ≤ 7.00 | 7.00 to 8.00 | – | – | CCC(O)c1cc2cnc(Nc3ccc(N4CCNCC4=O)cn3)nc2c(NC(C)C)n1 (stereo not shown) [Compound 1036]
